Measured values reported in PMC5515969, “Effects of 31 FDA approved small-molecule kinase inhibitors on isolated rat liver mitochondria” (Archives of Toxicology, 2016).
Read-outs that look alike come from different tables or passages of the source.

What was measured:
[1] = system: isolated rat liver mitochondria; test: Mitochondrial oxygen consumption (glutamate/malate or succinate driven, state 4 and state 3); format: biochemical; details: DMSO treated samples set as 1; for State 3 respiration driven by succinate at 10XCmax: key: 0 indicates that the drug had no effects (negative); for State 3 respiration driven by succinate at 1XCmax: key: 0 indicates that the drug had no effects (negative)
In short: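 Oxygen uptake on glutamate/malate or on succinate defined state 4; ADP added 3 min later gave state 3. Mitochondria isolated from rat liver by differential centrifugation, adjusted to 1 mg/ml and pretreated 5 min with inhibitor (0.1% DMSO final). Values relative to DMSO control, set to 1.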

[2] = system: RCC I; test: RCC I activity in submitochondrial particles; format: biochemical, rat; design: key to RCC I at 10XCmax / RCC I at 100XCmax / RCC I at 50XCmax / RCC I at 30XCmax / RCC I at 20XCmax: activity relative to DMSO-treated controls (control set as 1 = 100%); details: 10XCmax
In short: (§1)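 Rat submitochondrial particles (1 mg/ml) were treated with test compounds for 15 min. RCC IV, like RCC III, was monitored at 550 nm every 10 s for 2 min, and RCC I/V at 340 nm each minute for 6 min. DMSO samples defined unit activity.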

[3] = molecular target: T1, RCC II (Rattus norvegicus, UniProt P21913+Q641Z9+Q6PCT8+Q920L2); test: RCC II activity in submitochondrial particles; format: biochemical; design: key: activity relative to DMSO-treated controls (control set as 1 = 100%)
T1 construct: Submitochondrial particles were prepared by subjecting the intact mitochondria to three successive freeze–thaw cycles; from tissue; host or cells: rat liver mitochondria, used as submitochondrial particles
T1 sequence (Q920L2 35-656): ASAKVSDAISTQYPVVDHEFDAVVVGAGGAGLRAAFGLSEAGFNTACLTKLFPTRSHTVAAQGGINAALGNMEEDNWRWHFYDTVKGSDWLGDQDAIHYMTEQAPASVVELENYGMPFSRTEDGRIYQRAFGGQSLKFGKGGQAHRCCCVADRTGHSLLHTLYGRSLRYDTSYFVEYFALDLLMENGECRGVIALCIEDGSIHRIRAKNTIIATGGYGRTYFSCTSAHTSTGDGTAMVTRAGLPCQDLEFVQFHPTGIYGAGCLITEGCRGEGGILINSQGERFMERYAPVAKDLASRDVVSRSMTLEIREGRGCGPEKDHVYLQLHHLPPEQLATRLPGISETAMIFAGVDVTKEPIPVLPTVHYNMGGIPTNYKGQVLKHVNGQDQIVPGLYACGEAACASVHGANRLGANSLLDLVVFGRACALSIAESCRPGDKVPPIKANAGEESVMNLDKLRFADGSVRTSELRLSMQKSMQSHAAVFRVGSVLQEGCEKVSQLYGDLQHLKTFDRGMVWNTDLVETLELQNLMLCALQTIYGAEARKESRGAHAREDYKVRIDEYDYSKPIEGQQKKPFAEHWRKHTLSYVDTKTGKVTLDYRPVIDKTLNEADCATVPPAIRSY
T1 sequence (P21913 31-282): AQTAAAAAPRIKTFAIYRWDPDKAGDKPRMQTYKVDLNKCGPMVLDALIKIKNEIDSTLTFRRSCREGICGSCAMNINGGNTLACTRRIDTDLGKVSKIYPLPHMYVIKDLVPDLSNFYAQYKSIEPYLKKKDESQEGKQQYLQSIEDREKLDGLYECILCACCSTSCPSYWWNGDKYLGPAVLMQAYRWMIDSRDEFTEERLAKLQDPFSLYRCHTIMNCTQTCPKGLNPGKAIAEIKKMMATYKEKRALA
T1 sequence (Q641Z9 1-169): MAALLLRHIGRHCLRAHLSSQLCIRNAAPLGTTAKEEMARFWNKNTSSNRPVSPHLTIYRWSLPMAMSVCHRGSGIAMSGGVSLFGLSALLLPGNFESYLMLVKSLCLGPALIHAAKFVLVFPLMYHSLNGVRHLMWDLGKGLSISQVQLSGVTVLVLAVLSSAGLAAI
T1 sequence (Q6PCT8 57-159): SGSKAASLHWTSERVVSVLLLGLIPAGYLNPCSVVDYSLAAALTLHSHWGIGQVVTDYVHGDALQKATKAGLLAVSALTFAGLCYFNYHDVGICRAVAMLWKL
In short: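 Activity relative to DMSO (set as 1) after 15-min exposure of submitochondrial particles (1 mg/ml) to compound. RCC I is defined as rotenone-sensitive activity and RCC II is followed at 600 nm over 6 min.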

[4] = system: RCC III; test: RCC III activity in submitochondrial particles; format: biochemical, rat; design: key to RCC III at 100XCmax: activity relative to DMSO-treated controls (control set as 1 = 100%); details: 100XCmax
In short: as §1

[5] = system: RCC IV; test: RCC IV activity in submitochondrial particles; format: biochemical, rat; design: key to RCC IV at 50XCmax / RCC IV at 100XCmax: activity relative to DMSO-treated controls (control set as 1 = 100%); details: 50XCmax, in %
In short: as §1

[6] = system: RCC V; test: RCC V activity in submitochondrial particles; format: biochemical, rat; for RCC V at 5XCmax: key: 0 indicates that the drug had no effects (negative)
In short: as §1

[7] = system: isolated rat liver mitochondria; test: Mitochondrial inner membrane potential (MMP), Rhodamine 123; format: biochemical; details: difference in signal between KI and DMSO treated samples at the end of experiments
From the text: Fig. 3 KI effects on mitochondrial inner membrane potential (MMP). […] In a, c, data are means and standard derivations from three separate experiments. *p < 0.05 as compared to DMSO-treated samples at the end of experiments. In b, data are means of two independent experiments

[8] = system: isolated rat liver mitochondria; test: Mitochondrial swelling (absorbance at 535 nm); format: biochemical; details: difference in signal between KI and DMSO treated samples at the end of experiments; for Swelling 5XCmax: key: 0 indicates that the drug had no effects (negative)
[9] = ref product labeling, cited from earlier work
[10] = ref product labeling, cited from earlier work; remark: listed apart in the source
[11] = relative to DMSO treated samples

For `Cc1nc(Nc2ncc(C(=O)Nc3c(C)cccc3Cl)s2)cc(N2CCN(CCO)CC2)n1` [dasatinib (free base)], the “State 3 respiration driven by glutamate/malate at 1XCmax” value [1] was 0, the “State 3 respiration driven by succinate at 1XCmax” value [1] was 0 and the “State 4 respiration driven by glutamate/malate at 1XCmax” value [1] was 0. The “State 4 respiration driven by succinate at 1XCmax” value [1] was 0, the “State 3 respiration driven by glutamate/malate at 2.5XCmax” value [1] was 0 and the “State 3 respiration driven by succinate at 2.5XCmax” value [1] was 0. For the same compound, the “State 4 respiration driven by glutamate/malate at 2.5XCmax” value [1] was 0, the “State 4 respiration driven by succinate at 2.5XCmax” value [1] was 0 and the “State 3 respiration driven by glutamate/malate at 5XCmax” value [1] was 0. For the same compound, the “State 3 respiration driven by succinate at 5XCmax” value [1] was 0, the “State 4 respiration driven by glutamate/malate at 5XCmax” value [1] was 0 and the “State 4 respiration driven by succinate at 5XCmax” value [1] was 0. For the same compound, the “State 3 respiration driven by glutamate/malate at 10XCmax” value [1] was 0, the “State 3 respiration driven by succinate at 10XCmax” value [1] was 0 and the “State 4 respiration driven by glutamate/malate at 10XCmax” value [1] was 0. For the same compound, the “State 4 respiration driven by succinate at 10XCmax” value [1] was 0, the “State 3 respiration driven by glutamate/malate at 20XCmax” value [1] was 0 and the “State 3 respiration driven by succinate at 20XCmax” value [1] was 0. For the same compound, the “State 4 respiration driven by glutamate/malate at 20XCmax” value [1] was 0, the “State 4 respiration driven by succinate at 20XCmax” value [1] was 0 and the “State 3 respiration driven by glutamate/malate at 30XCmax” value [1] was 0. For the same compound, the “State 3 respiration driven by succinate at 30XCmax” value [1] was 0, the “State 4 respiration driven by glutamate/malate at 30XCmax” value [1] was 0 and the “State 4 respiration driven by succinate at 30XCmax” value [1] was 0. For the same compound, the “State 3 respiration driven by glutamate/malate at 50XCmax” value [1] was 0, the “State 3 respiration driven by succinate at 50XCmax” value [1] was 0 and the “State 4 respiration driven by glutamate/malate at 50XCmax” value [1] was 0. For the same compound, the “State 4 respiration driven by succinate at 50XCmax” value [1] was 0, the “State 3 respiration driven by glutamate/malate at 100XCmax” value [1] was 0 and the “State 3 respiration driven by succinate at 100XCmax” value [1] was 0. For the same compound, the “State 4 respiration driven by glutamate/malate at 100XCmax” value [1] was 0, the “State 4 respiration driven by succinate at 100XCmax” value [1] was 0 and the “RCC I at 10XCmax” value [2, 11] was 0. For the same compound, the “RCC II at 1.0XCmax” value [3, 11] was 0, the “RCC II at 2.5XCmax” value [3, 11] was 0 and the “RCC II at 5XCmax” value [3, 11] was 0. For the same compound, the “RCC II at 10XCmax” value [3, 11] was 0, the “RCC II at 20XCmax” value [3, 11] was 0 and the “RCC II at 30XCmax” value [3, 11] was 0. For the same compound, the “RCC II at 50XCmax” value [3, 11] was 0, the “RCC II at 100XCmax” value [3, 11] was 0 and the “RCC III at 100XCmax” value [4, 11] was 0. The “RCC IV at 50XCmax” value [5, 11] was 0, the “RCC V at 5XCmax” value [6, 11] was 0 and the “RCC V at 50XCmax” value [6, 11] was 0. For the same compound, the “MMP measured by Rhodamine 123 at 1XCmax” value [7] was 0, the “MMP measured by Rhodamine 123 at 2.5XCmax” value [7] was 0 and the “MMP measured by Rhodamine 123 at 5XCmax” value [7] was 0. The “MMP measured by Rhodamine 123 at 10XCmax” value [7] was 0, the “MMP measured by Rhodamine 123 at 20XCmax” value [7] was 0 and the “MMP measured by Rhodamine 123 at 30XCmax” value [7] was 0. The “MMP measured by Rhodamine 123 at 50XCmax” value [7] was 0, the “MMP measured by Rhodamine 123 at 100XCmax” value [7] was 0 and the “Swelling 1XCmax” value [8] was 0. The “Swelling 2.5XCmax” value [8] was 0, the “Swelling 5XCmax” value [8] was 0 and the “Swelling 10XCmax” value [8] was 0. For the same compound, the “Swelling 20XCmax” value [8] was 0, the “Swelling 30XCmax” value [8] was 0 and the “Swelling 50XCmax” value [8] was 0. For the same compound, the “Swelling 100XCmax” value [8] was 0, the Cmax ([9]; read-out: Cmax at µM, therapeutic maximal blood concentration) was 0.18 µM and the “Cmax” value ([9]; therapeutic maximal blood concentration) was 0.0858 µg/mL. The “DILI potential (based on labeling)” value ([10]; 1 = DILI positive, 0 = negative) was 0.
In the case of `CC(=O)c1c(C)c2cnc(Nc3ccc(N4CCNCC4)cn3)nc2n(C2CCCC2)c1=O.Cl` [palbociclib hydrochloride], the “State 3 respiration driven by glutamate/malate at 1XCmax” value [1] is reported as 0, the “State 3 respiration driven by succinate at 1XCmax” value [1] is reported as 0 and the “State 4 respiration driven by glutamate/malate at 1XCmax” value [1] is reported as 0. For the same compound, the “State 4 respiration driven by succinate at 1XCmax” value [1] was 0, the “State 3 respiration driven by glutamate/malate at 2.5XCmax” value [1] was 0 and the “State 3 respiration driven by succinate at 2.5XCmax” value [1] was 0. The “State 4 respiration driven by glutamate/malate at 2.5XCmax” value [1] was 0, the “State 4 respiration driven by succinate at 2.5XCmax” value [1] was 0 and the “State 3 respiration driven by glutamate/malate at 5XCmax” value [1] was 0. The “State 3 respiration driven by succinate at 5XCmax” value [1] was 0, the “State 4 respiration driven by glutamate/malate at 5XCmax” value [1] was 0 and the “State 4 respiration driven by succinate at 5XCmax” value [1] was 0. For the same compound, the “State 3 respiration driven by glutamate/malate at 10XCmax” value [1] was 0, the “State 3 respiration driven by succinate at 10XCmax” value [1] was 0 and the “State 4 respiration driven by glutamate/malate at 10XCmax” value [1] was 0. For the same compound, the “State 4 respiration driven by succinate at 10XCmax” value [1] was 0, the “State 3 respiration driven by glutamate/malate at 20XCmax” value [1] was 0 and the “State 3 respiration driven by succinate at 20XCmax” value [1] was 0. The “State 4 respiration driven by glutamate/malate at 20XCmax” value [1] was 0, the “State 4 respiration driven by succinate at 20XCmax” value [1] was 0 and the “State 3 respiration driven by glutamate/malate at 30XCmax” value [1] was 0. The “State 3 respiration driven by succinate at 30XCmax” value [1] was 0, the “State 4 respiration driven by glutamate/malate at 30XCmax” value [1] was 0 and the “State 4 respiration driven by succinate at 30XCmax” value [1] was 0. The “State 3 respiration driven by glutamate/malate at 50XCmax” value [1] was 0, the “State 3 respiration driven by succinate at 50XCmax” value [1] was 0 and the “State 4 respiration driven by glutamate/malate at 50XCmax” value [1] was 0. The “State 4 respiration driven by succinate at 50XCmax” value [1] was 0, the “State 3 respiration driven by glutamate/malate at 100XCmax” value [1] was 0 and the “State 3 respiration driven by succinate at 100XCmax” value [1] was 0. For the same compound, the “State 4 respiration driven by glutamate/malate at 100XCmax” value [1] was 0, the “State 4 respiration driven by succinate at 100XCmax” value [1] was 0 and the “RCC I at 10XCmax” value ([2]; DMSO treated samples set as 1) was 0. For the same compound, the “RCC II at 1.0XCmax” value ([3]; DMSO treated samples set as 1) was 0, the “RCC II at 2.5XCmax” value ([3]; DMSO treated samples set as 1) was 0 and the “RCC II at 5XCmax” value ([3]; DMSO treated samples set as 1) was 0. For the same compound, the “RCC II at 10XCmax” value ([3]; DMSO treated samples set as 1) was 0, the “RCC II at 20XCmax” value ([3]; DMSO treated samples set as 1) was 0 and the “RCC II at 30XCmax” value ([3]; DMSO treated samples set as 1) was 0. The “RCC II at 50XCmax” value ([3]; DMSO treated samples set as 1) was 0, the “RCC II at 100XCmax” value ([3]; DMSO treated samples set as 1) was 0 and the “RCC III at 100XCmax” value [4] was 0. The “RCC IV at 50XCmax” value ([5]; DMSO treated samples set as 1) was 0, the “RCC V at 5XCmax” value ([6]; DMSO treated samples set as 1) was 0 and the “RCC V at 50XCmax” value ([6]; DMSO treated samples set as 1) was 0. The “MMP measured by Rhodamine 123 at 1XCmax” value [7] was 0, the “MMP measured by Rhodamine 123 at 2.5XCmax” value [7] was 0 and the “MMP measured by Rhodamine 123 at 5XCmax” value [7] was 0. The “MMP measured by Rhodamine 123 at 10XCmax” value [7] was 0, the “MMP measured by Rhodamine 123 at 20XCmax” value [7] was 0 and the “MMP measured by Rhodamine 123 at 30XCmax” value [7] was 0. For the same compound, the “MMP measured by Rhodamine 123 at 50XCmax” value [7] was 0, the “MMP measured by Rhodamine 123 at 100XCmax” value [7] was 0 and the “Swelling 1XCmax” value [8] was 0. The “Swelling 2.5XCmax” value [8] was 0, the “Swelling 5XCmax” value [8] was 0 and the “Swelling 10XCmax” value [8] was 0. The “Swelling 20XCmax” value [8] was 0, the “Swelling 30XCmax” value [8] was 0 and the “Swelling 50XCmax” value [8] was 0. For the same compound, the “Swelling 100XCmax” value [8] was 0, the “Cmax (ng or µg/ml)” value ([9]; human therapeutic maximal blood concentration) was 0.116 µg/mL and the Cmax ([9]; read-out: Cmax at µM, human therapeutic maximal blood concentration) was 0.24 µM. For the same compound, the “DILI potential (based on labeling)” value ([10]; 1 DILI positive, 0 negative according to labeling) was 0.
